In US20230255943A1, “MMP-9 AND MMP-12 INHIBITION FOR TREATING SPINAL CORD INJURY OR RELATED INJURY TO NEUROLOGICAL TISSUE” (The University of Birmingham, priority 2020, published 2023):

How the values were obtained:
mice with CC SCI = assay: Assessment of neuropathic pain (mechanical, thermal, cold allodynia) in CC model; assay type: in vivo, mouse
Protocol: CC SCI was administered at the T7-T8 vertebral level after exposure of T6-T9 by laminectomy. The aneurysm clip applicator was oriented in a bilateral direction and an aneurysm clip with a closing force of 24 g was applied extradurally for 60 s, as described previously (A. S. Rivlin, C. H. Tator, Effect of duration of acute spinal cord compression in a new acute cord injury model in the rat. Surg Neurol 10, 38-43 (1978):E. Esposito, I. Paterniti, E. Mazzon, T. Genovese, M. Galuppo, R. Meli, P. Bramanti, S. Cuzzocrea, MK801 attenuates secondary injury in a mouse experimental compression model of spinal cord trauma. BMC Neurosci 12, 31 (2011)).
The urinary bladders were manually emptied twice daily until bladder function was regained. Adult male C57BL6 mice (25-30 g) (Charles River, Margate, UK) were randomly allocated to either: (1), Sham (control; laminectomy but no CC SCI); (2), CC SCI+vehicle; (3), CC SCI+200 mg/kg AZD1236 (oral); (4), CC SCI+5 mg/kg AZD1236 (it). All experiments were performed with n=6 mice/group and repeated on 3 independent occasions (total=18 mice/group/test).
Mechanical allodynia was measured in mice using a series of von Frey filaments (0.25 g-15 g) applied to the plantar surface of the hind-paw by an experimenter masked to the treatment conditions and withdrawal of the paw was recorded as a positive response (F. Nasirinezhad, S. Gajavelli, B. Priddy, S. Jergova, J. Zadina, J. Sagen, Viral vectors encoding endomorphins and serine histogranin attenuate neuropathic pain symptoms after spinal cord injury in rats. Mol Pain 11, 2 (2015)).
The hair with the lowest force required to elicit a paw withdrawal response was recorded. […]
Thermal hyperalgesia was tested using established methods of plantar heat sensitivity tests described previously (S. Surey, M. Berry, A. Logan, R. Bicknell, Z. Ahmed, Differential cavitation, angiogenesis and wound-healing responses in injured mouse and rat spinal cords. Neuroscience 275, 62-80 (2014)). […] The reaction time of paw withdrawal was recorded for five separate tests for each hind limb with a 30-s interval before re-testing on the same paw. […]
Cold allodynia was measured by an experimenter masked to the treatment conditions as the number of foot withdrawal responses after application of an acetone drop to the plantar surface of the paw (F. Nasirinezhad, S. Gajavelli, B. Priddy, S. Jergova, J. Zadina, J. Sagen, Viral vectors encoding endomorphins and serine histogranin attenuate neuropathic pain symptoms after spinal cord injury in rats. Mol Pain 11, 2 (2015)). Testing was repeated five times with an interval of 5 min between each test and the response frequency to acetone was expressed as a percent response frequency ([number of paw withdrawals/number of trials]×100).

IL-1β, TNF-α and IL-6 = assay: qRT-PCR of proinflammatory pain markers after DC injury in mice; assay type: in vivo, mouse; conditions: for injury-induced rise of proinflammatory pain markers IL-1β, TNF-α and IL-6: 3d after DC injury
Protocol: For oral delivery of AZD1236, n=6 adult male C57BL6 mice/group (Charles River, Margate, UK) were randomly allocated to either: (1), Sham (control; partial laminectomy but no DC crush injury); (2), DC crush injury+vehicle (partial laminectomy followed by DC crush injury and injection of vehicle); (3), DC crush injury+100 mg/kg AZD1236; (4), DC crush injury+200 mg/kg AZD1236; and (5), DC crush injury+300 mg/kg AZD1236. For intrathecal (it) delivery of AZD1236, adult male C57BL6 mice (25-30 g) (Charles River, Margate, UK) were randomly allocated to either: (1), Sham (control; partial laminectomy but no DC crush injury); (2), DC crush injury+vehicle (partial laminectomy followed by DC crush injury and injection of vehicle); (3), DC crush injury+2.5 mg/kg AZD1236; (4), DC crush injury+5 mg/kg AZD1236; and (5), DC crush injury+10 mg/kg AZD1236. For intrathecal delivery an indwelling atlanto-occipital intrathecal catheter was inserted into the intrathecal space, as described previously (F. A. Oladosu, B. P. Ciszek, S. C. O'Buckley, A. G. Nackley, Novel intrathecal and subcutaneous catheter delivery systems in the mouse. J Neurosci Methods 264, 119-128 (2016)). Briefly, with mice in the sternal recumbency a small incision was made at the nape of the neck followed by detachment of the muscles on either side of the external occipital crest to expose the A-O membrane. The membrane was incised and a 6 cm Alzet mouse intrathecal catheter (Alzet, Cupertino, Calif., USA) and polyurethane segments were gently guided 2.5 cm into the intrathecal space. […]
DC crush injury was administered bilaterally at the T8 vertebral level as described previously (S. Surey, M. Berry, A. Logan, R. Bicknell, Z. Ahmed, Differential cavitation, angiogenesis and wound-healing responses in injured mouse and rat spinal cords. Neuroscience 275, 62-80 (2014); M. L. Read, S. Mir, R. Spice, R. J. Seabright, E. L. Suggate, Z. Ahmed, M. Berry, A. Logan, Profiling RNA interference (RNAi)-mediated toxicity in neural cultures for effective short interfering RNA design. J Gene Med 11, 523-534 (2009)). […]

C[C@]1(CS(=O)(=O)N2CC=C(C#Cc3cnc(C4CC4)nc3)CC2)NC(=O)NC1=O [AZD1236]
cold allodynia, improvement (mice with CC SCI; oral delivery): > 80 % of sham-treated controls
mechanical allodynia, improvement (mice with CC SCI; oral delivery): > 80 % of sham-treated controls
thermal allodynia, improvement (mice with CC SCI; oral delivery): > 80 % of sham-treated controls
improvements in mechanical, thermal and cold allodynia vs pregabalin and gabapentin (mice with CC SCI; pregabalin 30 mg/kg, gabapentin 100 mg/kg): significantly better
injury-induced rise of proinflammatory pain markers IL-1β, TNF-α and IL-6 (IL-1β, TNF-α and IL-6; intrathecal, 5 mg/kg): reduced them to sham-treated levels
proinflammatory cytokines, 24-h delayed treatment (IL-1β, TNF-α and IL-6; optimal doses, 24 h delay vs immediate): equally as effective as immediate delivery
injury-induced rise of proinflammatory pain markers IL-1β, TNF-α and IL-6 (IL-1β, TNF-α and IL-6; oral, 200 mg/kg): reduced them to sham-treated levels
